The results in this text go back to patent US11453683B1, “KRas G12D inhibitors” (Mirati Therapeutics, Inc., priority 2019, dated 2022).

In the experiment the test system is KRas G12D-mediated phosphorylation of ERK. The experiment is described as follows: Inhibition of KRas G12D-mediated phosphorylation of ERK in AGS cells. It counts as cell-based. Particulars: Homo sapiens; AGS cells expressing G12D, 3 hours, phospho-ERK normalized to GAPDH. In short, it runs like this: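 In-cell Western: p-ERK Thr202/Tyr204 signal over GAPDH, as % of DMSO control, with IC50 from a 4-parameter curve. AGS cells seeded 40,000/well for 12-14 h, exposed to compound 3 h at 0.5% DMSO final, then formaldehyde-fixed and methanol-permeabilized.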

`CN1CC[C@@H](COc2nc(N3C[C@H]4CC[C@@H](C3)N4)c3cnc(-c4cccc5cccc(Cl)c45)c(F)c3n2)C1` [Example 356, 4-((1R,5S)-3,8-diazabicyclo[3.2.1]octan-3-yl)-7-(8-chloronaphthalen-1-yl)-8-fluoro-2-(((R)-1-methylpyrrolidin-3-yl)methoxy)pyrido[4,3-d]pyrimidine] returned an IC50 of 11.9 µM.

On to `OCCc1cccc2cccc(-c3ncc4c(N5C[C@H]6CC[C@@H](C5)N6)nc(OCC56CCCN5CCC6)nc4c3F)c12` [Example 239, 2-(8-(4-((1R,5S)-3,8-diazabicyclo[3.2.1]octan-3-yl)-8-fluoro-2-((tetrahydro-1H-pyrrolizin-7a(5H)-yl)methoxy)pyrido[4,3-d]pyrimidin-7-yl)naphthalen-1-yl)ethan-1-ol], for which the half-maximal inhibitory concentration (IC50) amounted to 2.95 µM.

`Oc1cc(Cl)c(C(F)(F)F)c(-c2ncc3c(N4C[C@H]5CC[C@@H](C4)N5)nc(OC[C@@]45CCCN4C[C@H](F)C5)nc3c2F)c1` [Example 284, 3-(4-((1R,5S)-3,8-diazabicyclo[3.2.1]octan-3-yl)-8-fluoro-2-(((2R,7aS)-2-fluorohexahydro-1H-pyrrolizin-7a-yl)methoxy)pyrido[4,3-d]pyrimidin-7-yl)-5-chloro-4-(trifluoromethyl)phenol] registered a half-maximal inhibitory concentration (IC50) of 0.0174 µM.

`CO[C@@H]1C[C@@H]2CN(c3nc(OC[C@@]45CCCN4C[C@H](F)C5)nc4c(F)c(-c5cccc6cccc(Cl)c56)ncc34)C[C@H]1N2` [Example 397, 7-(8-chloronaphthalen-1-yl)-8-fluoro-2-((2-fluorotetrahydro-1H-pyrrolizin-7a(5H)-yl)methoxy)-4-((1R,5R,6R)-6-methoxy-3,8-diazabicyclo[3.2.1]octan-3-yl)pyrido[4,3-d]pyrimidine] yielded an IC50 greater than 16.7 µM.

In turn, `CN1CCC[C@H]1COc1nc(N2C[C@H]3CC[C@@H](C2)N3)c2cnc(-c3cc(O)c(Br)c4ccccc34)c(F)c2n1` [Example 14, 4-(4-((1R,5S)-3,8-diazabicyclo[3.2.1]octan-3-yl)-8-fluoro-2-(((S)-1-methylpyrrolidin-2-yl)methoxy)pyrido[4,3-d]pyrimidin-7-yl)-1-bromonaphthalen-2-ol] gave an IC50 of 4.84 µM.

In turn, `Cn1ccnc1CCOc1nc(N2C[C@H]3C[C@@H](O)[C@@H](C2)N3)c2cnc(-c3cccc4cccc(Cl)c34)c(F)c2n1` [Example 173, (1R,5R,6R)-3-(7-(8-chloronaphthalen-1-yl)-8-fluoro-2-(2-(1-methyl-1H-imidazol-2-yl)ethoxy)pyrido[4,3-d]pyrimidin-4-yl)-3,8-diazabicyclo[3.2.1]octan-6-ol] registered an IC50 of 10.5 µM.

`CN1C[C@H](F)C[C@H]1COc1nc(N2C[C@H]3CC[C@@H](C2)N3)c2cnc(-c3cc(O)cc4ccccc34)c(F)c2n1` [Example 16, 4-(4-((1R,5S)-3,8-diazabicyclo[3.2.1]octan-3-yl)-8-fluoro-2-(((2S,4R)-4-fluoro-1-methylpyrrolidin-2-yl)methoxy)pyrido[4,3-d]pyrimidin-7-yl)naphthalen-2-ol] registered a 50% inhibitory concentration (IC50) of 3.83 µM.

`CN1CCC[C@H]1COc1nc(N2CC3CCC(C(N)=O)(C2)N3)c2cnc(-c3cc(O)cc4ccccc34)c(F)c2n1` (stereo partly drawn) [Example 159, 3-(8-fluoro-7-(3-hydroxynaphthalen-1-yl)-2-(((S)-1-methylpyrrolidin-2-yl)methoxy)pyrido[4,3-d]pyrimidin-4-yl)-3,8-diazabicyclo[3.2.1]octane-1-carboxamide bis(2,2,2-trifluoroacetate)] came in with a half-maximal inhibitory concentration (IC50) greater than 16.7 µM.

In turn, `Cc1nccn1CCOc1nc(N2C[C@H]3C[C@@H](O)[C@@H](C2)N3)c2cnc(-c3cccc4cccc(Cl)c34)c(F)c2n1` [Example 167, (1R,5R,6R)-3-(7-(8-chloronaphthalen-1-yl)-8-fluoro-2-(2-(2-methyl-1H-imidazol-1-yl)ethoxy)pyrido[4,3-d]pyrimidin-4-yl)-3,8-diazabicyclo[3.2.1]octan-6-ol] returned a half-maximal inhibitory concentration (IC50) of 16.1 µM.

`Fc1c(-c2cccc3c2CCC3)ncc2c(N3CC4CCC(C3)N4)nc(OC[C@@]34CCCN3C[C@H](F)C4)nc12` [Example 428] had a 50% inhibitory concentration (IC50) of 6.96 µM.

On to `C#Cc1cccc2cccc(-c3ncc4c(N5C[C@H]6CC[C@@H](C5)N6)nc(OC[C@]56CCCN5C[C@@H](F)C6)nc4c3F)c12` [Example 205, 4-((1R,5S)-3,8-diazabicyclo[3.2.1]octan-3-yl)-7-(8-ethynylnaphthalen-1-yl)-8-fluoro-2-(((2S,7aR)-2-fluorotetrahydro-1H-pyrrolizin-7a(5H)-yl)methoxy)pyrido[4,3-d]pyrimidine], for which the IC50 turned out to be 0.242 µM.

As for `Oc1cc(-c2ncc3c(N4C[C@H]5CC[C@@H](C4)N5)nc(OCCc4ccc(F)cn4)nc3c2F)c2ccccc2c1` [Example 102, 4-(4-((1R,5S)-3,8-diazabicyclo[3.2.1]octan-3-yl)-8-fluoro-2-(2-(5-fluoropyridin-2-yl)ethoxy)pyrido[4,3-d]pyrimidin-7-yl)naphthalen-2-ol], the half-inhibitory concentration (IC50) was found to be 7.96 µM.

`CCc1c(F)ccc2cc(O)cc(-c3ncc4c(N5C[C@H]6CC[C@@H](C5)N6)nc(OC[C@]56CCCN5[C@@H](COC(=O)N(C)C)CC6)nc4c3F)c12` [Example 441, ((3R,7aR)-7a-(((4-((1R,5S)-3,8-diazabicyclo[3.2.1]octan-3-yl)-7-(8-ethyl-7-fluoro-3-hydroxynaphthalen-1-yl)-8-fluoropyrido[4,3-d]pyrimidin-2-yl)oxy)methyl)hexahydro-1H-pyrrolizin-3-yl)methyl dimethylcarbamate]: the midpoint of inhibition, the IC50, lay at 0.0041 µM.

Turning to `CC1(C)CN2CCCC2(COc2nc(N3CC4CCC(C3)N4)c3cnc(-c4cccc5cccc(Cl)c45)c(F)c3n2)C1` [Example 228, 4-((1R,5S)-3,8-diazabicyclo[3.2.1]octan-3-yl)-7-(8-chloronaphthalen-1-yl)-2-((2,2-dimethyltetrahydro-1H-pyrrolizin-7a(5H)-yl)methoxy)-8-fluoropyrido[4,3-d]pyrimidine bis-2,2,2-trifluoroacetate], half-maximal inhibition (IC50) was put at 13.7 µM.

For `Fc1c(-c2cccc3cccc(Cl)c23)ncc2c(N3C[C@H]4CC[C@@H](C3)N4)nc(OCC34CCCN3CCC4)nc12` [Example 45, 4-((1R,5S)-3,8-diazabicyclo[3.2.1]octan-3-yl)-7-(8-chloronaphthalen-1-yl)-8-fluoro-2-((tetrahydro-1H-pyrrolizin-7a(5H)-yl)methoxy)pyrido[4,3-d]pyrimidine], half-maximal inhibition (IC50) required 0.84 µM.

In turn, `O[C@@H]1C[C@@H]2CN(c3nc(OC[C@@]45CCCN4C[C@H](F)C5)nc4c(F)c(-c5cccc6cccc(Cl)c56)ncc34)C[C@H]1N2` [Example 395, (1R,5R,6R)-3-(7-(8-chloronaphthalen-1-yl)-8-fluoro-2-((2-fluorotetrahydro-1H-pyrrolizin-7a(5H)-yl)methoxy)pyrido[4,3-d]pyrimidin-4-yl)-3,8-diazabicyclo[3.2.1]octan-6-ol] came in with a concentration for half-maximal inhibition (IC50) of 1.09 µM.

Take `COC[C@H]1CC[C@@]2(COc3nc(N4CC5CCC(C4)N5)c4cnc(-c5cc(O)cc6ccccc56)c(F)c4n3)CCCN12` (stereo in doubt) [Example 389, 4-(4-((1R,5S)-3,8-diazabicyclo[3.2.1]octan-3-yl)-8-fluoro-2-((3-(methoxymethyl)tetrahydro-1H-pyrrolizin-7a(5H)-yl)methoxy)pyrido[4,3-d]pyrimidin-7-yl)naphthalen-2-ol]: the IC50 was 0.781 µM.

As for `CC(C)n1ccnc1CCOc1nc(N2C[C@H]3CC[C@@H](C2)N3)c2cnc(-c3cc(O)cc4ccccc34)c(F)c2n1` [Example 91, 4-(4-((1R,5S)-3,8-diazabicyclo[3.2.1]octan-3-yl)-8-fluoro-2-(2-(1-isopropyl-1H-imidazol-2-yl)ethoxy)pyrido[4,3-d]pyrimidin-7-yl)naphthalen-2-ol], inhibition was half-maximal at 5.51 µM (IC50).

`Nc1cccc(CCOc2nc(N3C[C@H]4CC[C@@H](C3)N4)c3cnc(-c4cc(O)cc5ccccc45)c(F)c3n2)n1` [Example 139, 4-(2-(2-(6-aminopyridin-2-yl)ethoxy)-4-((1R,5S)-3,8-diazabicyclo[3.2.1]octan-3-yl)-8-fluoropyrido[4,3-d]pyrimidin-7-yl)naphthalen-2-ol] registered an IC50 of 5.25 µM.

In turn, `Cc1cc2[nH]ccc2c(-c2ncc3c(N4C[C@H]5CC[C@@H](C4)N5)nc(OCC45CCCN4CCC5)nc3c2F)c1C` [Example 250, 4-((1R,5S)-3,8-diazabicyclo[3.2.1]octan-3-yl)-7-(5,6-dimethyl-1H-indol-4-yl)-8-fluoro-2-((hexahydro-1H-pyrrolizin-7a-yl)methoxy)pyrido[4,3-d]pyrimidine] had an IC50 of 7.48 µM.

`CCC1(N)CN(c2nc(N3C[C@H]4CC[C@@H](C3)N4)c3cnc(-c4cc(O)cc5ccccc45)c(F)c3n2)C1` [Example 126, 4-(2-(3-amino-3-ethylazetidin-1-yl)-4-((1R,5S)-3,8-diazabicyclo[3.2.1]octan-3-yl)-8-fluoropyrido[4,3-d]pyrimidin-7-yl)naphthalen-2-ol]: the half-inhibitory concentration (IC50) was 3.47 µM.

In the case of `Oc1cc(-c2ncc3c(N4C[C@H]5CC[C@@H](C4)N5)nc(N4CCCC4)nc3c2F)c2ccccc2c1` [Example 118, 4-(4-((1R,5S)-3,8-diazabicyclo[3.2.1]octan-3-yl)-8-fluoro-2-(pyrrolidin-1-yl)pyrido[4,3-d]pyrimidin-7-yl)naphthalen-2-ol 2,2,2-trifluoroacetate], the IC50 is greater than 16.7 µM.

Compound `CN(C)Cc1ccc(COCCNC(=O)O[C@@H]2C[C@@H](COc3nc(N4C[C@H]5CC[C@@H](C4)N5)c4cnc(-c5cccc6cccc(Cl)c56)c(F)c4n3)N(C)C2)cc1` [Example 308, (3R,5S)-5-(((4-((1R,5S)-3,8-diazabicyclo[3.2.1]octan-3-yl)-7-(8-chloronaphthalen-1-yl)-8-fluoropyrido[4,3-d]pyrimidin-2-yl)oxy)methyl)-1-methylpyrrolidin-3-yl (2-((4-((dimethylamino)methyl)benzyl)oxy)ethyl)carbamate] displayed an IC50 greater than 5.56 µM.

The compound `CO[C@H]1CN[C@H](COc2nc(N3C[C@H]4CC[C@@H](C3)N4)c3cnc(-c4cccc5cccc(Cl)c45)c(F)c3n2)C1` [Example 351] showed an IC50 greater than 16.7 µM.

Usually IC50 stands for the concentration that gives 50% inhibition. Lower therefore signals greater potency in that assay.
